From patent publication US8207208B2, “Angiotensin II receptor antagonists” (Merck Sharp & Dohme Corp., priority 2008, dated 2012)

Legend:
vessel = vessel relaxation assay
[1] = tested on: reactive nitrogen species (RNS), detected as S-nitrosothiols in rat plasma; assay: DAN assay of reactive nitrogen species in plasma after oral dosing of rats; format: in vivo, Sprague-Dawley rats; settings: fasted SD rats, 40 mpk PO
Experimental: Mononitrate compounds that have been orally dosed to rats result in nitrites (metabolites of nitric oxide) circulating in plasma with maximal concentrations in the 0.5-2 μM range. Similar dosing of isosorbide mononitrate compounds described in this invention results in increased circulating nitrite concentrations. Biochemical evidence for the generation of NO in vivo in response to test compound administration was obtained from studies in Sprague-Dawley rats. Administration of test compound to fasted SD rats (40 mpk, PO) results in the appearance of reactive nitrogen species (RNS), assessed using the diaminonapthalene derivitization (DAN) assay.
RNS were detected as S-nitrosothiols (RNSOs) in EDTA-treated rat plasma using an HPLC fluorescent assay based on the method of Kostka and Park (Methods Enzymol. 1999, 301, 227-235). The method is based on the detection of fluorescent 2,3-naphthotriazole (NAT) formed in the reaction between acidified 2,3-diaminonaphthalene and the nitrosonium moiety of RSNOs released by HgCl2-mediated breakdown of the S—NO bond. The reaction mixture was chromatographed by reversed phase HPLC, and the fluorescent signal of the resolved NAT peak was quantified.
Plasma (20 μL) was first diluted 1:1 in H2O (20 μL) in a black polypropylene untreated microtiter plate. DAN reagent (100 μL per well, 100 μM DAN in 0.1 N HCl, 4 mM HgCl2) was added, and the plate was immediately sealed with an opaque plate mat, vortexed, and incubated in the dark for 10 min. Plates were centrifuged (2000×g, 5 min) and chilled to 4° C. before HPLC analysis. HPLC was carried out on an Agilent 1200 system using a chilled autosampler (4° C.). Samples were chromatographed on a C8 column (Zorbax Eclipse XDB-C8, 4.6×150 mm, 5 μm) with isocratic elution using a mobile phase of 67% MeOH, 0.1% NH4OAc and a flow rate of 2 mL/min. NAT fluorescence was monitored at 450 nm using an excitation wavelength of 360 nm. Calibration curves were prepared using NaNO2 in control plasma.
RNS change for Examples 2, 3, 4, 5, 7, 10, 11 and 12 was measured at 1, 3, 6 and 24 hours, and is shown below.

| Compound | EC50 (vessel) | DAN ΔRNS ([1]; 1 h) | DAN ΔRNS ([1]; 3 h) | DAN ΔRNS ([1]; 6 h) | DAN ΔRNS ([1]; 24 h) |
| --- | --- | --- | --- | --- | --- |
| CCCCc1nc(Cl)c(C(=O)O[C@@H](C)C(=O)O[C@H]2CO[C@H]3[C@@H]2OC[C@H]3O[N+](=O)[O-])n1Cc1ccc(-c2ccccc2-c2nnn[nH]2)cc1 [Example 11, (1S)-1-methyl-2-{[(3S,3aR,6R,6aS)-6-(nitrooxy)hexahydrofuro[3,2-b]furan-3-yl]oxy}-2-oxoethyl 2-butyl-4-chloro-1-{[2′-(1H-tetrazol-5-yl)biphenyl-4-yl]methyl}-1H-imidazole-5-carboxylate] |  | 1.1 ± 1.2 µM | 3.3 ± 1.5 µM | 1.8 ± 2.0 µM | 0.1 ± 1.8 µM |
| 2-{[(3S,3aR,6R,6aS)-6-(nitrooxy)hexahydrofuro[3,2-b]furan-3-yl]oxy}-2-oxoethyl 2-butyl-4-chloro-1-{[2′-(1H-tetrazol-5-yl)biphenyl-4-yl]methyl}-1H-imidazole-5-carboxylate [Example 9] | 5.1 µM |  |  |  |  |
| CCOc1nc2cccc(C(=O)O[C@@H](C)OC(=O)O[C@H]3CO[C@H]4[C@@H]3OC[C@H]4O[N+](=O)[O-])c2n1Cc1ccc(-c2ccccc2-c2nnn[nH]2)cc1 [Example 5, (1R)-1-[({[(3S,3aR,6R,6aS)-6-(nitrooxy)hexahydrofuro[3,2-b]furan-3-yl]oxy}carbonyl)oxy]ethyl 2-ethoxy-1-{[2′-(1H-tetrazol-5-yl)biphenyl-4-yl]methyl}-1H-benzimidazole-7-carboxylate] |  | 0.7 ± 0.5 µM | 2.5 ± 1.0 µM | 2.4 ± 1.2 µM | -0.3 ± 0.6 µM |
| CCCCc1nc(Cl)c(C(=O)O[C@H]2CO[C@H]3[C@@H]2OC[C@H]3O[N+](=O)[O-])n1Cc1ccc(-c2ccccc2-c2nnn[nH]2)cc1 [Example 7, (3S,3aR,6R,6aS)-6-(nitrooxy)hexahydrofuro[3,2-b]furan-3-yl 2-butyl-4-chloro-1-{[2′-(1H-tetrazol-5-yl)biphenyl-4-yl]methyl}-1H-imidazole-5-carboxylate] |  | 5.4 ± 3.2 µM | 1.5 ± 1.2 µM | 0.2 ± 0.3 µM | -0.3 ± 0.2 µM |
| CCCCc1nc(Cl)c(C(=O)O[C@H](C)C(=O)O[C@H]2CO[C@H]3[C@@H]2OC[C@H]3O[N+](=O)[O-])n1Cc1ccc(-c2ccccc2-c2nnn[nH]2)cc1 [Example 10, (1R)-1-methyl-2-{[(3S,3aR,6R,6aS)-6-(nitrooxy)hexahydrofuro[3,2-b]furan-3-yl]oxy}-2-oxoethyl 2-butyl-4-chloro-1-{[2′-(1H-tetrazol-5-yl)biphenyl-4-yl]methyl}-1H-imidazole-5-carboxylate] |  | 0.7 ± 0.3 µM | 2.0 ± 0.4 µM | 1.9 ± 0.7 µM | 0.1 ± 0.3 µM |

More lines, main results first:

| EC50 (vessel) | Compound | DAN ΔRNS ([1]; 1 h) | DAN ΔRNS ([1]; 3 h) | DAN ΔRNS ([1]; 6 h) | DAN ΔRNS ([1]; 24 h) |
| --- | --- | --- | --- | --- | --- |
| 15.4 µM | CCCCc1nc(Cl)c(C(=O)O[C@@H](C)OC(=O)O[C@H]2CO[C@H]3[C@@H]2OC[C@H]3O[N+](=O)[O-])n1Cc1ccc(-c2ccccc2-c2nnn[nH]2)cc1 [Example 3, (1R)-1-[({[(3S,3aR,6R,6aS)-6-(nitrooxy)hexahydrofuro[3,2-b]furan-3-yl]oxy}carbonyl)oxy]ethyl 2-butyl-4-chloro-1-{[2′-(1H-tetrazol-5-yl)biphenyl-4-yl]methyl}-1H-imidazole-5-carboxylate] | 0.5 ± 0.4 µM | 2.7 ± 0.5 µM | 3.0 ± 0.5 µM | 0.1 ± 0.7 µM |
| 14.2 µM | CCOc1nc2cccc(C(=O)OC(C)(C)OC(=O)O[C@H]3CO[C@H]4[C@@H]3OC[C@H]4O[N+](=O)[O-])c2n1Cc1ccc(-c2ccccc2-c2nnn[nH]2)cc1 [Example 1, 1-[({[(3S,6R)-6-(nitrooxy)hexahydrofuro[3,2-b]furan-3-yl]oxy}carbonyl)oxy]-1-methylethyl 2-ethoxy-1-{[2′-(1H-tetrazol-5-yl)biphenyl-4-yl]methyl}-1H-benzimidazole-7-carboxylate] |  |  |  |  |
| 20.6 µM | CCCCc1nc(Cl)c(C(=O)OCCC(=O)O[C@H]2CO[C@H]3[C@@H]2OC[C@H]3O[N+](=O)[O-])n1Cc1ccc(-c2ccccc2-c2nnn[nH]2)cc1 [Example 12, 3-{[(3S,3aR,6R,6aS)-6-(nitrooxy)hexahydrofuro[3,2-b]furan-3-yl]oxy}-3-oxopropyl 2-butyl-4-chloro-1-{[2′-(1H-tetrazol-5-yl)biphenyl-4-yl]methyl}-1H-imidazole-5-carboxylate] | 0.5 ± 0.2 µM | 1.5 ± 0.9 µM | 1.3 ± 0.6 µM | 0.0 ± 0.2 µM |
| 8.9 µM | CCOc1nc2cccc(C(=O)O[C@H](C)OC(=O)O[C@H]3CO[C@H]4[C@@H]3OC[C@H]4O[N+](=O)[O-])c2n1Cc1ccc(-c2ccccc2-c2nnn[nH]2)cc1 [Example 4, (1S)-1-[({[(3S,3aR,6R,6aS)-6-(nitrooxy)hexahydrofuro[3,2-b]furan-3-yl]oxy}carbonyl)oxy]ethyl 2-ethoxy-1-{[2′-(1H-tetrazol-5-yl)biphenyl-4-yl]methyl}-1H-benzimidazole-7-carboxylate] | 0.9 ± 0.2 µM | 2.1 ± 1.4 µM | 4.2 ± 2.1 µM | 0.6 ± 0.3 µM |
| 9.5 µM | CCCCc1nc(Cl)c(C(=O)O[C@H](C)OC(=O)O[C@H]2CO[C@H]3[C@@H]2OC[C@H]3O[N+](=O)[O-])n1Cc1ccc(-c2ccccc2-c2nnn[nH]2)cc1 [Example 2, (1S)-1-[({[(3S,3aR,6R,6aS)-6-(nitrooxy)hexahydrofuro[3,2-b]furan-3-yl]oxy}carbonyl)oxy]ethyl 2-butyl-4-chloro-1-{[2′-(1H-tetrazol-5-yl)biphenyl-4-yl]methyl}-1H-imidazole-5-carboxylate] | 2.3 ± 1.0 µM | 6.1 ± 1.1 µM | 4.5 ± 1.4 µM | 1.1 ± 0.7 µM |
